The target in experiment [1] is GlunN1/GluN2A glutamate receptors (Homo sapiens (Human), UniProt Q05586+Q12879). The experiment is described as follows: Whole-cell patch clamp of mammalian cells (Ionworks Barracuda), positive allosteric modulation, GluN1/GluN2A. Type of experiment: cell-based. In outline:
(§1)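 Perforated-patch whole-cell recording, holding −70 mV, −40 mV during application; Cs-based internal pH 7.2, external with 5 mM CaCl2 pH 7.4. Test article pre-applied alone 5 min, then co-applied with EC20 L-glutamate plus 30 μM glycine. EC50 from Hill fit of % activation over the EC20 current.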
In general terms: The patch-clamp technique gives a direct electrical read-out from membranes.

Experiment [2] addresses GluN2B glutamate receptors (Homo sapiens (Human), UniProt Q05586+Q13224). Description: Whole-cell patch clamp of mammalian cells (Ionworks Barracuda), positive allosteric modulation, GluN2B. The note with it: for Emax: read-out: Avg Emax 2B (%). In kind it is cell-based. In outline:
as §1

[3] abbreviates: HEK293 cells, % potentiation of current elicited with EC20 L-glutamate and 30 μM glycine, read-out: Avg Emax 2A (%).
The mark [4] stands for this setting: % potentiation of current elicited with EC20 L-glutamate and 30 μM glycine.
Setting [5] is: HEK293 cells, co-application with EC20 L-glutamate and 30 μM glycine, 8-point concentration-response, read-out: Avg EC50 2A.
The mark [6] stands for this setting: co-application with EC20 L-glutamate and 30 μM glycine, 8-point concentration-response, read-out: Avg EC50 2B.
Where [7] appears, read: HEK293, read-out: Avg Emax 2A (%).

Read-outs that look alike come from different tables or passages of the source.

For orientation: EC50 means the concentration that produces a half-maximal response. Usually Emax stands for the greatest response seen or fitted, relative to the assay's reference.

Sequence of GlunN1/GluN2A glutamate receptors (Q12879 23-1464, other chains not shown): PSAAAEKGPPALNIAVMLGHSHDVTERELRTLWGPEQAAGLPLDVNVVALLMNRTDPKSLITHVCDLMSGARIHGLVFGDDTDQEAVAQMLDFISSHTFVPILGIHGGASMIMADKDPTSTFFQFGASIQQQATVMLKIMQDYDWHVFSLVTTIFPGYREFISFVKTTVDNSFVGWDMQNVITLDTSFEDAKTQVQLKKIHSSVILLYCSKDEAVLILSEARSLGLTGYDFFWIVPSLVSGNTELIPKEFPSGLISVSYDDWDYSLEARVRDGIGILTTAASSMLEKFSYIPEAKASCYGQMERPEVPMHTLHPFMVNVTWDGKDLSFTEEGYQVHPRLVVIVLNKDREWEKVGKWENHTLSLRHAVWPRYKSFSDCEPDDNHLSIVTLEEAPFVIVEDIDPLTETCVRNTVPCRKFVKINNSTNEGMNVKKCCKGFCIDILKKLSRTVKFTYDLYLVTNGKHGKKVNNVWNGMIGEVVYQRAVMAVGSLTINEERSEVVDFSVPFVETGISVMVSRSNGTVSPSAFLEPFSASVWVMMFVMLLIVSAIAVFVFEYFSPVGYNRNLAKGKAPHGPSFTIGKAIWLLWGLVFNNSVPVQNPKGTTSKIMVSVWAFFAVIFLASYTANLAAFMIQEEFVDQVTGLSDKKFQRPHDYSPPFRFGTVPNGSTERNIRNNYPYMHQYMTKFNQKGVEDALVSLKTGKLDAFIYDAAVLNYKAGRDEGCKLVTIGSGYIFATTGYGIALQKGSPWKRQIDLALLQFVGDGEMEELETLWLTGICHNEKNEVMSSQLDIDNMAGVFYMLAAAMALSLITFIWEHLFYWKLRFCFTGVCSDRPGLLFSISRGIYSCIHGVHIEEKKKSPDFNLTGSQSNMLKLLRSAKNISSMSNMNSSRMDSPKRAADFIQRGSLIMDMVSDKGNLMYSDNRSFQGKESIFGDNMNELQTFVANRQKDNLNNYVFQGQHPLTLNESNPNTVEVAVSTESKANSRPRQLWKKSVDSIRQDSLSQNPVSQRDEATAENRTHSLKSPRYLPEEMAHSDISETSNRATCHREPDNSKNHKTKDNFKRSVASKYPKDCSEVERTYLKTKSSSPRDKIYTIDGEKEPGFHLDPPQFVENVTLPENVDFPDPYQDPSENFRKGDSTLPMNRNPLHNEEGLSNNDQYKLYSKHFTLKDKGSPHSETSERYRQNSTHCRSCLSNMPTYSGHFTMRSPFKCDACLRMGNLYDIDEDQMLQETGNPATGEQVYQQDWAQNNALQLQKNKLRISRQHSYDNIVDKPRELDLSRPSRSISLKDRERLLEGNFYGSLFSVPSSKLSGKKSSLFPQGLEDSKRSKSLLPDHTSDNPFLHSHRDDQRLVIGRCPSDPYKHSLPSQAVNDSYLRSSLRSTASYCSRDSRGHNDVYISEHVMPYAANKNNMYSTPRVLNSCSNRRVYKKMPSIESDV
Sequence of GluN2B glutamate receptors (Q13224 27-1484, other chains not shown): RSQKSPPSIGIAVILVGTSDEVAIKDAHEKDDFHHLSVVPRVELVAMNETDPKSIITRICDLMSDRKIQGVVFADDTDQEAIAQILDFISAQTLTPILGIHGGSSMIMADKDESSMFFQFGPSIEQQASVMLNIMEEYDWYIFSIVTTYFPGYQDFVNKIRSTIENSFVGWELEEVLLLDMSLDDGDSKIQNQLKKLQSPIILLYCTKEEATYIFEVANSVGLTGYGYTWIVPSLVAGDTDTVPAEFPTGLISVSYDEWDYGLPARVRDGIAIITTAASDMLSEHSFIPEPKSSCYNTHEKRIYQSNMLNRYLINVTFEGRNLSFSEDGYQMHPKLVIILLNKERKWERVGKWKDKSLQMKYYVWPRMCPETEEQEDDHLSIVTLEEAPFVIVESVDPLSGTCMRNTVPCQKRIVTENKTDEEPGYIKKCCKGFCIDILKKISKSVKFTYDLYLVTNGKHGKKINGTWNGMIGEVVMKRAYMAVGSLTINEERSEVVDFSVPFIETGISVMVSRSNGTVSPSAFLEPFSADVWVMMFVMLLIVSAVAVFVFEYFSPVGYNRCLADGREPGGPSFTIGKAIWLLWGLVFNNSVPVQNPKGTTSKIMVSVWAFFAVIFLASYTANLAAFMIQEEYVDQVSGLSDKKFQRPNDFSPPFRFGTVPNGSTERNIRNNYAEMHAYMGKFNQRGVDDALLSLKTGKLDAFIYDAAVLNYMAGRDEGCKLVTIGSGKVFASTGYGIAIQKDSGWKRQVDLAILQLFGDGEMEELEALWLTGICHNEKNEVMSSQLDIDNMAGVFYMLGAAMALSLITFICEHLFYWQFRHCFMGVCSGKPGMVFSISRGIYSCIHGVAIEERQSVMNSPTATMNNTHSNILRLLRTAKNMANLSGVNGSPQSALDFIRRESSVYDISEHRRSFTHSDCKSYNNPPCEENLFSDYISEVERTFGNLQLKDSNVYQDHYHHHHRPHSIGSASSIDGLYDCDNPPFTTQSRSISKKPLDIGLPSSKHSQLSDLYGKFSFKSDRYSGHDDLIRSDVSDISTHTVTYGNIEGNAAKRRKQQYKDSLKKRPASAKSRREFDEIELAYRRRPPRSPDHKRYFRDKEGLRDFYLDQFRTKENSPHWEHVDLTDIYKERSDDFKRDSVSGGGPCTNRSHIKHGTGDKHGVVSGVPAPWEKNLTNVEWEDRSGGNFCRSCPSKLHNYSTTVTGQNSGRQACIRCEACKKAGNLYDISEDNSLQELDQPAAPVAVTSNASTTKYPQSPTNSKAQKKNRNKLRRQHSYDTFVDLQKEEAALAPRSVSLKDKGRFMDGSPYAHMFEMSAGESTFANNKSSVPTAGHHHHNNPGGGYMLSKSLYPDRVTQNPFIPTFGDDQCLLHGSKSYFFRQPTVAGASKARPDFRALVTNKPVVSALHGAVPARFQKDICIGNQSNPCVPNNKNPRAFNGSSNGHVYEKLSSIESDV

With `CO[C@H]1CC[C@@](O)(CC[C@@H](C)[C@H]2CC[C@H]3[C@@H]4CC[C@H]5C[C@](O)(C(F)(F)F)CC[C@]5(C)[C@H]4CC[C@]23C)CC1` [Compound 4555], the 50% effective concentration (EC50) in experiment [1] and in experiment [2] was greater than 10000 nM in each case. Also, the Emax in experiment [1] (setting [3]) was 22.8%; in experiment [2] (setting [4]), 31.9%.
As to `C[C@H](CC[C@@H](O)C1CCOCC1)[C@H]1CC[C@H]2[C@@H]3CC[C@H]4C[C@](O)(C(F)(F)F)CC[C@]4(C)[C@H]3CC[C@]12C` [Compound 2081], the values for the EC50 in experiment [1] and in experiment [2] were 129 nM and 175 nM, respectively. For the same compound, the Emax in experiment [1] (setting [3]) came to 126%; in experiment [2] (setting [4]) it was 215%.
Turning to `C[C@H](CC[C@](C)(O)C(F)(F)F)[C@H]1CC[C@H]2[C@@H]3CC[C@H]4C[C@](O)(C(F)(F)F)CC[C@]4(C)[C@H]3CC[C@]12C` [Compound 4], the EC50 in experiment [1] was found to be 201 nM; in experiment [2], 212 nM. Moreover, the results for the Emax in experiment [1] (setting [3]) and in experiment [2] (setting [4]) were 663% and 463%, respectively.
Turning to `C[C@H](O)CCC[C@@H](C)[C@H]1CC[C@H]2[C@@H]3CC[C@H]4C[C@](O)(C(F)(F)F)CC[C@]4(C)[C@H]3CC[C@]12C` [Compound 2113], the Emax is 403% in experiment [1] (setting [3]) and 285% in experiment [2] (setting [4]).
With `CC[C@H]1CC[C@](O)(CC[C@@H](C)[C@H]2CC[C@H]3[C@@H]4CC[C@H]5C[C@](O)(C(F)(F)F)CC[C@]5(C)[C@H]4CC[C@]23C)CC1` [Compound 4476], the EC50 in experiment [1] and in experiment [2] was greater than 10000 nM in each case. The Emax was -3.3% in experiment [1] (setting [3]) and 10.4% in experiment [2] (setting [4]).
`C[C@H](CC[C@@H](C)O)[C@H]1CC[C@H]2[C@@H]3CC[C@H]4C[C@](O)(C(F)(F)F)CC[C@]4(C)[C@H]3CC[C@]12C` [Compound 2285]: the results for the EC50 in experiment [1] and in experiment [2] were 764 nM and 494 nM, respectively. For the same compound, the values for the Emax in experiment [1] (setting [3]) and in experiment [2] (setting [4]) were 205% and 220%, respectively.
With `CC[C@]1(O)CC[C@H]2C(=CC[C@@H]3[C@@H]2CC[C@]2(C)[C@@H]([C@H](C)CCC[C@@H](O)C(F)(F)F)CC[C@@H]32)C1` [Compound 10456], the Emax turned out to be 231% in experiment [1] (setting [3]) and 266% in experiment [2] (setting [4]). Besides, the EC50 in experiment [1] (setting [5]) was 240 nM; in experiment [2] (setting [6]) it was 209 nM.
With `C[C@H](CCC1(O)CCCCC1)[C@H]1CC[C@H]2[C@@H]3CC[C@H]4C[C@](O)(C(F)(F)F)CC[C@]4(C)[C@H]3CC[C@]12C` [Compound 4023], the values for the EC50 in experiment [1] and in experiment [2] were 516 nM and 406 nM, respectively. The figures for the Emax in experiment [1] (setting [3]) and in experiment [2] (setting [4]) were 322% and 418%, respectively.
For the compound `CC[C@]1(O)CC[C@@]2(C)C(=CC[C@H]3[C@@H]4CC[C@H]([C@H](C)CC[C@H](O)c5cccc(F)c5)[C@@]4(C)CC[C@@H]32)C1` [Compound 6896], the EC50 amounted to 519 nM in experiment [1] and 1680 nM in experiment [2]. For the same compound, the Emax in experiment [1] (setting [3]) came out at 216%; in experiment [2] (setting [4]) it was 402%.
On to `CC[C@]1(O)CC[C@@]2(C)C(=CC[C@H]3[C@@H]4CC[C@H]([C@H](C)CC[C@H](O)c5ccccc5C#N)[C@@]4(C)CC[C@@H]32)C1` [Compound 7300], for which the EC50 in experiment [1] and in experiment [2] was greater than 10000 nM throughout. Further, the Emax turned out to be 37.5% in experiment [1] (setting [3]) and 46.9% in experiment [2] (setting [4]).
For `CC[C@H]1CC[C@@](O)(CC[C@@H](C)[C@H]2CC[C@H]3[C@@H]4CC[C@H]5C[C@](O)(C(F)(F)F)CC[C@]5(C)[C@H]4CC[C@]23C)CC1` [Compound 4475], the EC50 in experiment [1] worked out at 461 nM; in experiment [2], 266 nM. In addition, the Emax in experiment [1] (setting [3]) was 364%; in experiment [2] (setting [4]), 355%.
As for `C[C@H](CCCC1(O)CCC(F)(F)CC1)[C@H]1CC[C@H]2[C@@H]3CC[C@H]4C[C@](O)(C(F)(F)F)CC[C@]4(C)[C@H]3CC[C@]12C` [Compound 11786], the Emax was 152% in experiment [1] (setting [3]) and 151% in experiment [2] (setting [4]). For the same compound, the EC50 in experiment [1] (setting [5]) came out at 584 nM; in experiment [2] (setting [6]) it was 1010 nM.
Take `C[C@H](CCCC1(O)CC1)[C@H]1CC[C@H]2[C@@H]3CC[C@H]4C[C@](O)(C(F)(F)F)CC[C@]4(C)[C@H]3CC[C@]12C` [Compound 4115]: the EC50 in experiment [1] was 91.9 nM; in experiment [2], 114 nM.
The like results for `C[C@H](CC[C@H](O)C(C)(C)C)[C@H]1CC[C@H]2[C@@H]3CC=C4C[C@](O)(C(F)(F)F)CC[C@]4(C)[C@H]3CC[C@]12C` [Compound 3507] were, in that order, 165 nM and 191 nM.
Consider `CC[C@]1(O)CC[C@H]2C(=CC[C@@H]3[C@@H]2CC[C@]2(C)[C@@H]([C@H](C)CCC4(O)CCOC4)CC[C@@H]32)C1` (some centres unmarked) [Compound 8689], for which the figures for the 50% effective concentration (EC50) in experiment [1] and in experiment [2] were 169 nM and 175 nM, respectively.
Regarding `CC(C)[C@H]1CC[C@@](O)(CC[C@@H](C)[C@H]2CC[C@H]3[C@@H]4CC[C@H]5C[C@](O)(C(F)(F)F)CC[C@]5(C)[C@H]4CC[C@]23C)CC1` [Compound 4258], the EC50 in experiment [1] is 1030 nM; in experiment [2] it was 640 nM. Besides, the Emax in experiment [1] (setting [3]) is 184%; in experiment [2] (setting [4]) it was 242%.
As to `CC[C@]1(O)CC[C@H]2C(=CC[C@@H]3[C@@H]2CC[C@]2(C)[C@@H]([C@H](C)CC[C@@H](O)C(C)(C)C)CC[C@@H]32)C1` [Compound 8379], the EC50 in experiment [1] was 73.4 nM; in experiment [2] it was 78.1 nM. Further, the values for the Emax in experiment [1] (setting [7]) and in experiment [2] were 252% and 359%, respectively.
Turning to `C[C@H](CC[C@](C)(O)C(F)(F)F)[C@H]1CC[C@H]2[C@@H]3CC=C4C[C@@](C)(O)CC[C@@H]4[C@H]3CC[C@]12C` [Compound 9062], the Emax in experiment [1] (setting [7]) amounted to 66.5%; in experiment [2], 52.2%.
The matching figures for `CCC(O)CCC[C@@H](C)[C@H]1CC[C@H]2[C@@H]3CC=C4C[C@](O)(CC)CC[C@@H]4[C@H]3CC[C@]12C` (some centres unmarked) [Compound 10673]: 216% and 214%.
Consider `CC[C@]1(O)CC[C@@]2(C)C(=CC[C@H]3[C@@H]4CC[C@H]([C@H](C)CC[C@H](O)c5ccccc5F)[C@@]4(C)CC[C@@H]32)C1` (single isomer, unassigned) [Compound 7281], for which the figures for the EC50 in experiment [1] and in experiment [2] were 248 nM and 303 nM, respectively.
As to `C[C@H](CCC[C@@H](O)C(C)(C)C)[C@H]1CC[C@H]2[C@@H]3CC[C@H]4C[C@](O)(C(F)(F)F)CC[C@]4(C)[C@H]3CC[C@]12C` [Compound 12055], the Emax is 114% in experiment [1] (setting [3]) and 185% in experiment [2] (setting [4]).
`CC[C@]1(O)CC[C@H]2C(=CC[C@@H]3[C@@H]2CC[C@]2(C)[C@@H]([C@H](C)CCCC4(O)CC4)CC[C@@H]32)C1` [Compound 10790]: the Emax in experiment [1] (setting [3]) is 160%; in experiment [2] (setting [4]), 246%. For the same compound, the results for the EC50 in experiment [1] (setting [5]) and in experiment [2] (setting [6]) were 204 nM and 271 nM, respectively.
For `C[C@H](CC[C@](C)(O)C(F)(F)F)[C@H]1CC[C@H]2[C@@H]3CC=C4C[C@](O)(C(F)(F)F)CC[C@]4(C)[C@H]3CC[C@]12C` [Compound 3035], the EC50 in experiment [1] came to 61 nM; in experiment [2], 75.7 nM.

For the origin of these results see patent publication US11149054B2, “Oxysterols and methods of use thereof” (Sage Therapeutics, Inc., priority 2016, dated 2021).
